# Measurements taken from patent publication US6432416B1, “Anti-microbial power coating” (Dupont Powder Coatings USA, Inc., priority 1997, dated 2002).
# How the values were obtained:
# [1] = tested on: Pseudomonas aeruginosa, Escherichia coli, and Salmonella typhinurium; test: Long-term anti-microbial activity test of cured powder coatings (bacterial coverage rating); details: cured epoxy powder coating; for AVERAGE BACTERIAL COVERAGE: growth rating 0 (good) to 4 (poor), averaged over the different samples (0.1 and 1 percent additive, different thickness), after four weeks; for bacterial coverage / activity relative to the control: long-term test
# Protocol: A long-term anti-microbial activity test was carried out to determine if selected anti-microbial agents maintain their anti-microbial activity after being incorporated into powder coatings and cured.
# Six anti-microbial agents were selected for experimentation. […] For each powder coating formulation, one of the six anti-microbial agents was added at concentrations of 0.1 percent and 1 percent of the total resin weight.
# Samples containing one of the six additives at the two concentrations in the coating matrix were prepared. […] Controls containing the coating formulation with no additive and controls containing only the black silicone resin used for edge coverage were included.
# The target bacterial organisms were Pseudomonas aeruginosa, Escherichia coli, and Salmonella typhinurium. Five groups of samples were prepared. […] Each of the following samples was prepared with an additive concentration of 1 percent of the resin by weight.
# The results were then rated on a scale of “0” (good performance) to “4” (poor performance) based on the number of colony-forming units observed. The growth ratings, which were averaged over the different samples, are based on the following numerical rating system:
# 0=No contamination (sterile).
# 1=Trace of contamination (1-9 colonies per “streak-inch”).
# 2=Light contamination (10-99 colonies per “streak-inch”).
# 3=Moderate contamination (greater than 100 colonies, but still distinguishable).
# 4=Heavy contamination (continuous smear of growth).
# [2] = tested on: Staphylococcus aureus, Escherichia coli, and Salmonella choleraesuis; test: AATCC Test Method 147 at higher anti-microbial concentration (zones of inhibition)
# [3] = tested on: Aspergillus niger (ATCC 6275), Penicillium funiculosum (ATCC 11797), and Aureobasidium pullulans (ATCC 9348); test: Resistance to fungal growth, ASTM D5590-95, mixed spore suspension; details: concentration of 1 percent; four weeks of exposure to fungus spores
# Protocol: Resistance to fungal growth was tested generally in accordance with ASTM D5590-95. […] Samples were aseptically placed onto a modified malt agar plate and then each sample was inoculated.
# The same samples were also exposed to fungus spores for a period of four weeks.
# [4] = tested on: fungus spores of Aspergillus niger, Penicillium funiculosum, and Aerobasidium pullulans; test: Shorter-term fungal test per ASTM D 5588-94; type: cell-based; details: after 72 hours of incubation
# Protocol: Next, steel coupons were coated with the anti-microbial formulations listed above and exposed per ASTM D 5588-94 to a mixture containing the fungus spores of Aspergillus niger, Penicillium funiculosum, and Aerobasidium pullulans. After the coupons were washed with a 70 percent ethanol/water solution, they were placed in a sterile Petri dish, inoculated, and incubated at 28° C. for the duration of the test. At appropriate intervals, each sample was checked for the presence of viable microorganisms by streaking each sample with a sterile cotton swab, then streaking the swab onto Potato Dextrose Agar (adjusted to pH 3.5 for fungi). These plates were also incubated at 28° C. […] The presence of microbial growth would indicate non-sterility, i.e., the sample contained viable microbial contamination.
# [5] = tested on: Pseudomonas aeruginosa, Staphylococcus aureus, and Escherichia coli; test: Shorter-term bacterial test per ASTM D 5588-94; type: cell-based; details: after 72 hours of incubation; 0.1 percent and 1 percent formulations
# Protocol: Steel coupons were coated with the Fungitrol® 11, Butyl Parabens®, and Amerstat® 300 anti-microbial formulations, at 0.1 percent and 1 percent, and exposed as per ASTM D 5588-94 to a mixture containing the bacteria Pseudomonas aeruginosa, Staphylococcus aureus, and Escherichia coli. After the coupons were washed with a 70 percent ethanol/water solution, they were placed in a sterile Petri dish, inoculated, and incubated at 32° C. for the duration of the test.
# At appropriate intervals, each sample was checked for the presence of viable microorganisms by streaking each sample with a sterile cotton swab, then streaking the swab onto Tryptic Soy Agar. The plates were incubated for 48 hours at 32° C. […] The presence of microbial growth would indicate non-sterility, i.e., the sample contained viable microbial contamination.
# The samples were examined for low levels of bacterial contamination by transferring an aliquot with a sterile cotton swab to a Tryptic Soy Broth in culture tubes. The tubes were incubated for 24 hours at 32° C., streaked onto Tryptic Soy Agar plates and the plates were incubated for 24 to 48 hours at 32° C.
# [6] = 5 percent agent in powder coating
SMILES,AVERAGE BACTERIAL COVERAGE [1],bacterial coverage / activity relative to the control [1],fungal growth on coating surface [3],other results
"CN1CSC(=S)N(C)C1 [Nuosept® S, 3,5-dimethyltetrahydro-1,3,5-2H-thiazine-2-thione]",3.6 ± 0.5,did not appear to improve the activity relative to the control,did not show conclusive fungal resistance,"zones of inhibition [2, 6]: Significant zones of inhibition; zones of inhibition ([2]; 10 percent agent in powder coating): Significant zones of inhibition; inhibiting the growth of Escherichia coli and Salmonella choleraesuis, compared with the triclosan formulation [2]: performed as well as or better than the triclosan formulation"
"N#Cc1c(Cl)c(Cl)c(Cl)c(C#N)c1Cl [Nuocide® 960, tetrachloroisophthalonitrile]",3.0 ± 1.3,–,free of visible fungal growth,–
"CCCCOC(=O)c1ccc(O)cc1 [Butyl Parabens®, butyl-p-hydroxy-benzoate]",2.6 ± 1.3,–,free of visible fungal growth,growth on coated samples exposed to fungus spores [4]: free of (or showed very low levels of) bacterial growth; bacterial growth on coated samples [5]: free of bacterial growth and were actually sterile
"Oc1cc(Cl)ccc1Oc1ccc(Cl)cc1Cl [Irgasan® DP 400, 5-chloro-2-(2,4-dichloro-phenoxy)phenol]",–,–,–,zones of inhibition ([2]; 3 percent agent in powder coating): Significant zones of inhibition
"O=[N+]([O-])C(Br)(CO)CO [Canguard® 409, 2-bromo-2-nitropropane-1,3-diol]",–,–,–,"zones of inhibition [2, 6]: Significant zones of inhibition; inhibiting the growth of Escherichia coli and Salmonella choleraesuis, compared with the triclosan formulation [2]: performed better than the triclosan formulation"
"N#CC(Br)(Br)C(N)=O [Amerstat® 300, dibromocyanoacetamide]",1.6 ± 1.5,significantly improved bacterial coverage,a very small amount of fungal growth,bacterial growth on coated samples [5]: did not show conclusive results
CCCOC(=O)c1ccc(O)cc1 [Propyl Parabens®],3.7 ± 0.5,did not appear to improve the activity relative to the control,free of visible fungal growth,–
